biological target: human TYK2 (JH2domain-pseudokinase) (Homo sapiens (Human), UniProt P29597); assay: TYK2 JH2 Domain Binding Assay (KINOMEscan, DiscoveRx); conditions: 11-point dilution, duplicate
In short: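 Kd from duplicate 11-point 3-fold dilutions starting at 30,000 nM, fitted by Hill equation with slope fixed at −1. Compounds (final 0.9% DMSO) displace DNA-tagged HEK293-expressed TYK2 JH2 fusion (<0.1 nM) from ligand-coated beads over 1 h at room temperature; eluted kinase read by qPCR.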

Sequence of human TYK2 (JH2domain-pseudokinase) (P29597 556-888): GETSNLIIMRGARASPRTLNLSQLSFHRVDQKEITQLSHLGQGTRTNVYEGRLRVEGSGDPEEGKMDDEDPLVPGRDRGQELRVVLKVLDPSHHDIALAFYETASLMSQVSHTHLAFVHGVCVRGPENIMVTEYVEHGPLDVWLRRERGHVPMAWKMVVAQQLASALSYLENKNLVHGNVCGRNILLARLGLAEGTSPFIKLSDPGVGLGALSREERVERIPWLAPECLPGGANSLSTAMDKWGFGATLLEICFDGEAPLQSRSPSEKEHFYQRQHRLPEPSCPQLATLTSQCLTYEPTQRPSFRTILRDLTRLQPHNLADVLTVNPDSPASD

First: Cc1nc2c(Nc3ccc(-c4cnn(C)c4C)cc3N(C)S(C)(=O)=O)cc(NC(=O)C3CC3)nc2[nH]1 [I-199, N-(7-((4-(1,5-dimethyl-1H-pyrazol-4-yl)-2-(N-methylmethylsulfonamido)phenyl)amino)-2-methyl-3H-imidazo[4,5-b]pyridin-5-yl)cyclopropanecarboxamide]
Second: Cc1nc2c(Nc3ccc(-c4cnn(C)c4)cc3N(C)S(C)(=O)=O)cc(NC(=O)[C@@H]3C[C@@H]3F)nc2[nH]1 [I-209, (1S,2S)-2-fluoro-N-(2-methyl-7-((4-(1-methyl-1H-pyrazol-4-yl)-2-(N-methylmethylsulfonamido)phenyl)amino)-3H-imidazo[4,5-b]pyridin-5-yl)cyclopropane-1-carboxamide]
The Kd of the first is lower: less than 0.1 nM for the first, 0.1 to 0.5 nM for the second. The first binds more tightly here.

`[2H]C([2H])([2H])N(c1ccccc1Nc1cc(Nc2cc(C)nc(C)n2)nc2[nH]c(C(F)F)nc12)S(C)(=O)=O` [I-200, N-(2-((2-(difluoromethyl)-5-((2,6-dimethylpyrimidin-4-yl)amino)-3H-imidazo[4,5-b]pyridin-7-yl)amino)phenyl)-N-(methyl-d3)methanesulfonamide] and `[2H]C([2H])([2H])N(c1ccccc1Nc1cc(Nc2cc(C)nc(C)n2)nc2[nH]c(C)nc12)S(C)(=O)=O` [I-201, N-(2-((5-((2,6-dimethylpyrimidin-4-yl)amino)-2-methyl-3H-imidazo[4,5-b]pyridin-7-yl)amino)phenyl)-N-(methyl-d3)methanesulfonamide] fall in the same range of Kd: 0.1 to 0.5 nM for the first, 0.1 to 0.5 nM for the second.

`CN(c1cc(C(F)F)ccc1Nc1cc(Nc2ccn(C)n2)nc2[nH]c(C(F)F)nc12)S(C)(=O)=O` [I-202, N-(5-(difluoromethyl)-2-((2-(difluoromethyl)-5-((1-methyl-1H-pyrazol-3-yl)amino)-3H-imidazo[4,5-b]pyridin-7-yl)amino)phenyl)-N-methylmethanesulfonamide] and `CN(c1cc(-c2cnn(C)c2)ccc1Nc1cc(NC(=O)[C@@H]2CC2(F)F)nc2[nH]c(C(F)F)nc12)S(C)(=O)=O` [I-230, (S)—N-(2-(difluoromethyl)-7-((4-(1-methyl-1H-pyrazol-4-yl)-2-(N-methylmethylsulfonamido)phenyl)amino)-3H-imidazo[4,5-b]pyridin-5-yl)-2,2-difluorocyclopropane-1-carboxamide] fall in the same range of Kd: 0.5 to 1 nM for the first, 0.5 to 1 nM for the second.

First: CS(=O)(=O)c1cc(C2CC2)ccc1Nc1cc(NC(=O)C2CC2)nc2[nH]c(C(F)F)nc12 [I-203]
Second: CS(=O)(=O)c1cc(C2CCC2)ccc1Nc1cc(NC(=O)C2CC2)nc2[nH]c(C(F)F)nc12 [I-220, N-(7-((4-cyclobutyl-2-(methylsulfonyl)phenyl)amino)-2-(difluoromethyl)-3H-imidazo[4,5-b]pyridin-5-yl)cyclopropanecarboxamide]
The Kd of the first is lower: 0.1 to 0.5 nM for the first, 1 to 10 nM for the second. The first binds more tightly here.

Compared with `COc1c(Nc2cc(Nc3cnc(C(C)(C)OC)c(C#N)n3)nc3[nH]c(C)nc23)cccc1-c1nnn(C)n1` [I-204, 6-((7-((2-methoxy-3-(2-methyl-2H-tetrazol-5-yl)phenyl)amino)-2-methyl-3H-imidazo[4,5-b]pyridin-5-yl)amino)-3-(2-methoxypropan-2-yl)pyrazine-2-carbonitrile], `COc1c(Nc2cc(Nc3cc(C(F)(F)F)n(C)n3)nc3[nH]c(C(F)F)nc23)cccc1-c1ncn(C)n1` [I-206, 2-(difluoromethyl)-N7-(2-methoxy-3-(1-methyl-1H-1,2,4-triazol-3-yl)phenyl)-N5-(1-methyl-5-(trifluoromethyl)-1H-pyrazol-3-yl)-3H-imidazo[4,5-b]pyridine-5,7-diamine] is higher in Kd: 0.5 to 1 nM for the first, 1 to 10 nM for the second. The first binds more tightly here.

Compared with `CS(=O)(=O)c1cc(Cl)ccc1Nc1cc(NC(=O)[C@H]2C[C@H]2F)nc2[nH]c(C(F)F)nc12` [I-205], `Cn1ccc(-c2ccc(Nc3cc(NC(=O)[C@@H]4C[C@@H]4F)nc4[nH]c(C(F)F)nc34)c(S(C)(=O)=O)c2)n1` [I-210, (1S,2S)—N-(2-(difluoromethyl)-7-((4-(1-methyl-1H-pyrazol-3-yl)-2-(methylsulfonyl)phenyl)amino)-3H-imidazo[4,5-b]pyridin-5-yl)-2-fluorocyclopropane-1-carboxamide] is lower in Kd: 0.5 to 1 nM for the first, 0.1 to 0.5 nM for the second. The second binds more tightly here.

First: Cc1nc2c(Nc3ccc(-c4cncn4C)cc3N(C)S(C)(=O)=O)cc(NC(=O)[C@@H]3C[C@@H]3F)nc2[nH]1 [I-208, (1S,2S)-2-fluoro-N-(2-methyl-7-((4-(1-methyl-1H-imidazol-5-yl)-2-(N-methylmethylsulfonamido)phenyl)amino)-3H-imidazo[4,5-b]pyridin-5-yl)cyclopropane-1-carboxamide]
Second: Cc1nc2c(Nc3ccc(-c4cncn4C)cc3S(C)(=O)=O)cc(NC(=O)C3CC3)nc2[nH]1 [I-215, N-(2-methyl-7-((4-(1-methyl-1H-imidazol-5-yl)-2-(methylsulfonyl)phenyl)amino)-3H-imidazo[4,5-b]pyridin-5-yl)cyclopropanecarboxamide]
The Kd of the first is higher: 1 to 10 nM for the first, less than 0.1 nM for the second. The second binds more tightly here.

`Cc1nc2c(Nc3ccc(-c4ccn(C)n4)cc3S(C)(=O)=O)cc(NC(=O)[C@@H]3C[C@@H]3F)nc2[nH]1` [I-211, (1S,2S)-2-fluoro-N-(2-methyl-7-((4-(1-methyl-1H-pyrazol-3-yl)-2-(methylsulfonyl)phenyl)amino)-3H-imidazo[4,5-b]pyridin-5-yl)cyclopropane-1-carboxamide] and `Cc1nc2c(Nc3ccc(-c4ccn(C)n4)cc3S(C)(=O)=O)cc(NC(=O)[C@H]3C[C@H]3F)nc2[nH]1` [I-225, (1R,2R)-2-fluoro-N-(2-methyl-7-((4-(1-methyl-1H-pyrazol-3-yl)-2-(methylsulfonyl)phenyl)amino)-3H-imidazo[4,5-b]pyridin-5-yl)cyclopropane-1-carboxamide] fall in the same range of Kd: 0.1 to 0.5 nM for the first, 0.1 to 0.5 nM for the second.

`Cn1cncc1-c1ccc(Nc2cc(NC(=O)C3CC3)nc3[nH]c(C(F)F)nc23)c(S(C)(=O)=O)c1` [I-214, N-(2-(difluoromethyl)-7-((4-(1-methyl-1H-imidazol-5-yl)-2-(methylsulfonyl)phenyl)amino)-3H-imidazo[4,5-b]pyridin-5-yl)cyclopropanecarboxamide] and `Cc1cc(-c2ccc(Nc3cc(NC(=O)C4CC4)nc4[nH]c(C(F)F)nc34)c(S(C)(=O)=O)c2)nn1C` [I-216, N-(2-(difluoromethyl)-7-((4-(1,5-dimethyl-1H-pyrazol-3-yl)-2-(methylsulfonyl)phenyl)amino)-3H-imidazo[4,5-b]pyridin-5-yl)cyclopropanecarboxamide] cannot be ordered by Kd: less than 0.1 nM for the first, less than 0.1 nM for the second.

First: Cc1nc2c(Nc3ccc(-c4cc(C)n(C)n4)cc3S(C)(=O)=O)cc(NC(=O)C3CC3)nc2[nH]1 [I-217, N-(7-((4-(1,5-dimethyl-1H-pyrazol-3-yl)-2-(methylsulfonyl)phenyl)amino)-2-methyl-3H-imidazo[4,5-b]pyridin-5-yl)cyclopropanecarboxamide]
Second: Cc1nc2c(Nc3ccc(-c4cn(C)cn4)cc3S(C)(=O)=O)cc(NC(=O)[C@H]3CC3(F)F)nc2[nH]1 [I-227, (R)-2,2-difluoro-N-(2-methyl-7-((4-(1-methyl-1H-imidazol-4-yl)-2-(methylsulfonyl)phenyl)amino)-3H-imidazo[4,5-b]pyridin-5-yl)cyclopropane-1-carboxamide]
The Kd of the first is lower: less than 0.1 nM for the first, 0.1 to 0.5 nM for the second.

`CN(c1cc([C@H]2CCCCO2)ccc1Nc1cc(NC(=O)C2CC2)nc2[nH]c(C(F)F)nc12)S(C)(=O)=O` [I-218, (R)—N-(2-(difluoromethyl)-7-((2-(N-methylmethylsulfonamido)-4-(tetrahydro-2H-pyran-2-yl)phenyl)amino)-3H-imidazo[4,5-b]pyridin-5-yl)cyclopropanecarboxamide] and `CN(c1cc([C@@H]2CCCCO2)ccc1Nc1cc(NC(=O)C2CC2)nc2[nH]c(C(F)F)nc12)S(C)(=O)=O` [I-219, (S)—N-(2-(difluoromethyl)-7-((2-(N-methylmethylsulfonamido)-4-(tetrahydro-2H-pyran-2-yl)phenyl)amino)-3H-imidazo[4,5-b]pyridin-5-yl)cyclopropanecarboxamide] fall in the same range of Kd: 0.1 to 0.5 nM for the first, 0.1 to 0.5 nM for the second.

First: Cc1nc2c(Nc3ccc(C4CCC4)cc3S(C)(=O)=O)cc(NC(=O)C3CC3)nc2[nH]1 [I-221, N-(7-((4-cyclobutyl-2-(methylsulfonyl)phenyl)amino)-2-methyl-3H-imidazo[4,5-b]pyridin-5-yl)cyclopropanecarboxamide]
Second: Cc1nc2c(Nc3ccc(C4CCOCC4)cc3S(C)(=O)=O)cc(NC(=O)C3CC3)nc2[nH]1 [I-226, N-(2-methyl-7-((2-(methylsulfonyl)-4-(tetrahydro-2H-pyran-4-yl)phenyl)amino)-3H-imidazo[4,5-b]pyridin-5-yl)cyclopropanecarboxamide]
The Kd of the first is higher: 0.5 to 1 nM for the first, 0.1 to 0.5 nM for the second.

`COCc1ccc(Nc2cc(NC(=O)C3CC3)nc3[nH]c(C(F)F)nc23)c(S(C)(=O)=O)c1` [I-222, N-(2-(difluoromethyl)-7-((4-(methoxymethyl)-2-(methylsulfonyl)phenyl)amino)-3H-imidazo[4,5-b]pyridin-5-yl)cyclopropanecarboxamide] and `COCc1ccc(Nc2cc(NC(=O)C3CC3)nc3[nH]c(C)nc23)c(S(C)(=O)=O)c1` [I-223, N-(7-((4-(methoxymethyl)-2-(methylsulfonyl)phenyl)amino)-2-methyl-3H-imidazo[4,5-b]pyridin-5-yl)cyclopropanecarboxamide] fall in the same range of Kd: 0.1 to 0.5 nM for the first, 0.1 to 0.5 nM for the second.

Compared with `Cc1nc2c(Nc3ccc(-c4ccn(C)n4)cc3S(C)(=O)=O)cc(NC(=O)[C@@H]3C[C@@H]3F)nc2[nH]1` [I-224, (1S,2S)-2-fluoro-N-(2-methyl-7-((4-(1-methyl-1H-pyrazol-3-yl)-2-(methylsulfonyl)phenyl)amino)-3H-imidazo[4,5-b]pyridin-5-yl)cyclopropane-1-carboxamide], `Cc1nc2c(Nc3ccc(-c4cn(C)cn4)cc3S(C)(=O)=O)cc(NC(=O)[C@@H]3CC3(F)F)nc2[nH]1` [I-228, (S)-2,2-difluoro-N-(2-methyl-7-((4-(1-methyl-1H-imidazol-4-yl)-2-(methylsulfonyl)phenyl)amino)-3H-imidazo[4,5-b]pyridin-5-yl)cyclopropane-1-carboxamide] is higher in Kd: less than 0.1 nM for the first, 1 to 10 nM for the second. The first binds more tightly here.

Compound `CS(=O)(=O)N(c1ccccc1Nc1cc(Nc2cccc(C#N)n2)nc2[nH]c(C(F)F)nc12)C(F)F` [I-229, N-(2-((5-((6-cyanopyridin-2-yl)amino)-2-(difluoromethyl)-3H-imidazo[4,5-b]pyridin-7-yl)amino)phenyl)-N-(difluoromethyl)methanesulfonamide] has a Kd of 1 to 10 nM.

Source: US10647713B2 (Nimbus Lakshmi, Inc., priority 2016, dated 2020)
